Read-outs that look alike come from different tables or passages of the source.
Key:
Experiment in all cases: Test C pre/postemergence
Format in all cases: in vivo
[1] = system: goosegrass (Eleusine indica); details: Eleusine indica; for pest or weed control at 62 g/ha: 62 g ai/ha; for pest or weed control at 125 g/ha: 125 g ai/ha
In short: (§1)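 Visual injury ratings, 0 (no effect) to 100 (complete control), made 12 to 14 days after treatment by comparison with untreated controls. Greenhouse plants received test chemical in a surfactant-containing non-phytotoxic solvent, either preemergence on planted seeds or postemergence at the 1- to 4-leaf stage.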

kochia (Kochia scoparia) = details: Bassia scoparia; for pest or weed control at 16 g/ha: 16 g ai/ha; for pest or weed control at 31 g/ha: 31 g ai/ha; for pest or weed control at 62 g/ha: 62 g ai/ha; for pest or weed control at 125 g/ha: 125 g ai/ha
In short: as §1

[2] = system: lambsquarters (Chenopodium album); details: Chenopodium album; for pest or weed control at 16 g/ha: 16 g ai/ha; for pest or weed control at 31 g/ha: 31 g ai/ha; for pest or weed control at 62 g/ha: 62 g ai/ha; for pest or weed control at 125 g/ha: 125 g ai/ha
In short: as §1

[3] = system: pigweed (Amaranthus retroflexus); details: Amaranthus retroflexus; for pest or weed control at 16 g/ha: 16 g ai/ha; for pest or weed control at 31 g/ha: 31 g ai/ha; for pest or weed control at 62 g/ha: 62 g ai/ha; for pest or weed control at 125 g/ha: 125 g ai/ha
In short: as §1

[4] = system: velvetleaf (Abutilon theophrasti); details: Abutilon theophrasti; for pest or weed control at 16 g/ha: 16 g ai/ha; for pest or weed control at 31 g/ha: 31 g ai/ha; for pest or weed control at 62 g/ha: 62 g ai/ha; for pest or weed control at 125 g/ha: 125 g ai/ha
In short: as §1

[5] = system: yellow nutsedge (Cyperus esculentus); details: Cyperus; for pest or weed control at 16 g/ha: 16 g ai/ha; for pest or weed control at 31 g/ha: 31 g ai/ha; for pest or weed control at 62 g/ha: 62 g ai/ha; for pest or weed control at 125 g/ha: 125 g ai/ha
In short: as §1

[6] = post-emergence, Postemergence, scale 0 to 100 (0 no effect, 100 complete control), read-out: Goosegrass plant response rating
[7] = post-emergence, Postemergence, read-out: Plant response rating (scale of 0 to 100), Kochia
[8] = post-emergence, Postemergence, scale 0 to 100 (0 no effect, 100 complete control), read-out: Kochia plant response rating
[9] = pre-emergence, Preemergence, scale 0 to 100, 0 no effect, 100 complete control, read-out: Plant response rating, Kochia
[10] = post-emergence, Postemergence, read-out: Plant response rating (scale of 0 to 100), Lambsquarters
[11] = post-emergence, Postemergence, scale 0 to 100 (0 no effect, 100 complete control), read-out: Lambsquarters plant response rating
[12] = pre-emergence, Preemergence, scale 0 to 100, 0 no effect, 100 complete control, read-out: Plant response rating, Lambsquarters
[13] = post-emergence, Postemergence, read-out: Plant response rating (scale of 0 to 100), Pigweed
[14] = post-emergence, Postemergence, scale 0 to 100 (0 no effect, 100 complete control), read-out: Pigweed plant response rating
[15] = pre-emergence, Preemergence, scale 0 to 100, 0 no effect, 100 complete control, read-out: Plant response rating, Pigweed
[16] = post-emergence, Postemergence, read-out: Plant response rating (scale of 0 to 100), Velvetleaf
[17] = post-emergence, Postemergence, scale 0 to 100 (0 no effect, 100 complete control), read-out: Velvetleaf plant response rating
[18] = pre-emergence, Preemergence, scale 0 to 100, 0 no effect, 100 complete control, read-out: Plant response rating, Velvetleaf
[19] = post-emergence, Postemergence, read-out: Plant response rating (scale of 0 to 100), Nutsedge, Yellow
[20] = post-emergence, Postemergence, scale 0 to 100 (0 no effect, 100 complete control), read-out: Nutsedge, Yellow plant response rating
[21] = pre-emergence, Preemergence, scale 0 to 100, 0 no effect, 100 complete control, read-out: Plant response rating, Nutsedge, Yellow

COC(=O)c1nc(C2CC2)nc(N)c1F [Compound 25]
pest or weed control at 62 g/ha [1, 6]: 0%
pest or weed control at 125 g/ha [1, 6]: 0%
pest or weed control at 16 g/ha ([1]; pre-emergence, Preemergence, 16 g ai/ha, scale 0 to 100, 0 no effect, 100 complete control, read-out: Plant response rating, Goosegrass): 0%
pest or weed control at 31 g/ha ([1]; pre-emergence, Preemergence, 31 g ai/ha, scale 0 to 100, 0 no effect, 100 complete control, read-out: Plant response rating, Goosegrass): 0%
pest or weed control at 62 g/ha ([1]; pre-emergence, Preemergence, scale 0 to 100, 0 no effect, 100 complete control, read-out: Plant response rating, Goosegrass): 0%
pest or weed control at 125 g/ha ([1]; pre-emergence, Preemergence, scale 0 to 100, read-out: Plant response rating, Goosegrass): 0%
pest or weed control at 16 g/ha (kochia (Kochia scoparia); [7]): 10%
pest or weed control at 31 g/ha (kochia (Kochia scoparia); [7]): 80%
pest or weed control at 62 g/ha (kochia (Kochia scoparia); [8]): 85%
pest or weed control at 125 g/ha (kochia (Kochia scoparia); [8]): 85%
pest or weed control at 16 g/ha (kochia (Kochia scoparia); [9]): 0%
pest or weed control at 31 g/ha (kochia (Kochia scoparia); [9]): 0%
pest or weed control at 62 g/ha (kochia (Kochia scoparia); [9]): 5%
pest or weed control at 125 g/ha (kochia (Kochia scoparia); pre-emergence, Preemergence, scale 0 to 100, read-out: Plant response rating, Kochia): 70%
pest or weed control at 16 g/ha [2, 10]: 30%
pest or weed control at 31 g/ha [2, 10]: 60%
pest or weed control at 62 g/ha [2, 11]: 85%
pest or weed control at 125 g/ha [2, 11]: 90%
pest or weed control at 16 g/ha [2, 12]: 0%
pest or weed control at 31 g/ha [2, 12]: 0%
pest or weed control at 62 g/ha [2, 12]: 30%
pest or weed control at 125 g/ha ([2]; pre-emergence, Preemergence, scale 0 to 100, read-out: Plant response rating, Lambsquarters): 50%
pest or weed control at 16 g/ha [3, 13]: 50%
pest or weed control at 31 g/ha [3, 13]: 50%
pest or weed control at 62 g/ha [3, 14]: 80%
pest or weed control at 125 g/ha [3, 14]: 100%
pest or weed control at 16 g/ha [3, 15]: 0%
pest or weed control at 31 g/ha [3, 15]: 30%
pest or weed control at 62 g/ha [3, 15]: 35%
pest or weed control at 125 g/ha ([3]; pre-emergence, Preemergence, scale 0 to 100, read-out: Plant response rating, Pigweed): 85%
pest or weed control at 16 g/ha [4, 16]: 5%
pest or weed control at 31 g/ha [4, 16]: 20%
pest or weed control at 62 g/ha [4, 17]: 45%
pest or weed control at 125 g/ha [4, 17]: 45%
pest or weed control at 16 g/ha [4, 18]: 0%
pest or weed control at 31 g/ha [4, 18]: 0%
pest or weed control at 62 g/ha [4, 18]: 0%
pest or weed control at 125 g/ha ([4]; pre-emergence, Preemergence, scale 0 to 100, read-out: Plant response rating, Velvetleaf): 40%
pest or weed control at 16 g/ha [5, 19]: 0%
pest or weed control at 31 g/ha [5, 19]: 0%
pest or weed control at 62 g/ha [5, 20]: 0%
pest or weed control at 125 g/ha [5, 20]: 0%
pest or weed control at 16 g/ha [5, 21]: 0%
pest or weed control at 31 g/ha [5, 21]: 0%
pest or weed control at 62 g/ha [5, 21]: 0%
pest or weed control at 125 g/ha ([5]; pre-emergence, Preemergence, scale 0 to 100, read-out: Plant response rating, Nutsedge, Yellow): 0%
